Legend:
[1] = Cmax in mouse at 10 mg/kg, po; format: ADME, organism-based; design: dose 10 mg/kg, route oral; details: in vivo
[2] = Cmax in Balb/c mouse assessed as 6-((5-Fluoropyridin-2-yl)amino)-4-((2-(methylsulfonyl)phenyl)amino)nicotinamide level at 10 mg/kg, po after 0.05 hrs; format: ADME, organism-based; design: dose 10 mg/kg, route oral; details: in vivo
[3] = Cmax in Balb/c mouse assessed as 6-((5-Fluoropyridin-2-yl)amino)-4-((2-(methylsulfonyl)phenyl)amino)nicotinamide level at 3 mg/kg, iv after 7 hrs; format: ADME, organism-based; design: dose 3 mg/kg, route intravenous; details: in vivo
[4] = Volume of distribution at steady state in Balb/c mouse at 3 mg/kg, iv; format: ADME, organism-based; details: in vivo, read-out: Vdss
[5] = Drug concentration in Balb/c mouse at 3 mg/kg, iv after 7 hrs; format: ADME, organism-based; details: in vivo, read-out: Drug uptake
[6] = AUClast in Balb/c mouse at 3 mg/kg, iv; format: ADME, organism-based; design: dose 3 mg/kg, route intravenous, time 0 - last; details: in vivo
JAK2/TYK2 = JAK2/TYK2 (Homo sapiens, UniProt O60674+P29597); assay: Inhibition of TYK2/JAK2 in IL23-stimulated human Kit225 cells by steady-glo luciferase assay
[7] = molecular target: Mast/stem cell growth factor receptor Kit (Homo sapiens, UniProt P10721); assay: Inhibition of cKIT (unknown origin)
[8] = Drug concentration in Balb/c mouse at 3 mg/kg, iv after 3 hrs; format: ADME, organism-based; details: in vivo, read-out: Drug uptake
[9] = Drug concentration in Balb/c mouse at 10 mg/kg, po after 7 hrs; format: ADME, organism-based; details: in vivo, read-out: Drug uptake
[10] = Drug concentration in Balb/c mouse at 3 mg/kg, iv after 0.05 hrs; format: ADME, organism-based; details: in vivo, read-out: Drug uptake
[11] = AUClast in Balb/c mouse assessed as 6-((5-Fluoropyridin-2-yl)amino)-4-((2-(methylsulfonyl)phenyl)amino)nicotinamide level at 3 mg/kg, iv; format: ADME, organism-based; design: dose 3 mg/kg, route intravenous, time 0 - last; details: in vivo
[12] = Drug concentration in Balb/c mouse at 10 mg/kg, po after 3 hrs; format: ADME, organism-based; details: in vivo, read-out: Drug uptake
[13] = Cmax in Balb/c mouse assessed as 6-((5-Fluoropyridin-2-yl)amino)-4-((2-(methylsulfonyl)phenyl)amino)nicotinamide level at 3 mg/kg, iv after 0.05 hrs; format: ADME, organism-based; design: dose 3 mg/kg, route intravenous; details: in vivo
[14] = Cmax in Balb/c mouse assessed as 6-((5-Fluoropyridin-2-yl)amino)-4-((2-(methylsulfonyl)phenyl)amino)nicotinamide level at 3 mg/kg, iv after 1 hr; format: ADME, organism-based; design: dose 3 mg/kg, route intravenous; details: in vivo
[15] = Cmax in Balb/c mouse assessed as 6-((5-Fluoropyridin-2-yl)amino)-4-((2-(methylsulfonyl)phenyl)amino)nicotinamide level at 10 mg/kg, po after 0.5 hrs; format: ADME, organism-based; design: dose 10 mg/kg, route oral; details: in vivo
[16] = molecular target: Tyrosine-protein kinase JAK2 (Homo sapiens, UniProt O60674); assay: Inhibition of JAK2 JH1 domain (unknown origin)
[17] = molecular target: T1, Non-receptor tyrosine-protein kinase TYK2 (Homo sapiens, UniProt P29597); assay: Inhibition of fluorescein-labeled kinase tracer binding to His-TVMV-fused TYK2 JH2 domain (575 to 869 residues) (unknown origin) measured after 90 mins by HTRF assay
[18] = molecular target: 3',5'-cyclic-AMP phosphodiesterase 4D (Homo sapiens, UniProt Q08499); assay: Inhibition of [3H]cAMP binding to recombinant human His-Tb fused PDE4D2 (86 to 413 residues) expressed in Escherichia coli using [3H]cAMP as substrate preincubated for 10 mins followed by [3H]cAMP addition and measured after 1 hr by scintillation proximity assay
JAK1/TYK2 = JAK1/TYK2 (Homo sapiens, UniProt P23458+P29597); assay: Inhibition of TYK2/JAK1 in IFNalpha-stimulated human Kit225 cells by steady-glo luciferase assay
[19] = AUClast in mouse at 10 mg/kg, po; format: ADME, organism-based; design: dose 10 mg/kg, route oral, time 0 - last; details: in vivo
[20] = molecular target: T1, Non-receptor tyrosine-protein kinase TYK2; assay: Inhibition of TYK2 JH1 domain (unknown origin)
[21] = Clearance in Balb/c mouse at 3 mg/kg, iv; format: ADME, organism-based; details: in vivo
[22] = Drug concentration in Balb/c mouse at 3 mg/kg, iv after 1 hr; format: ADME, organism-based; details: in vivo, read-out: Drug uptake
JAK3/JAK1 = JAK3/JAK1 (Homo sapiens, UniProt P23458+P52333); assay: Inhibition of JAK1/JAK3 (unknown origin) in IL-2 stimulated cells by cell based assay
[23] = Drug concentration in Balb/c mouse at 10 mg/kg, po after 0.05 hrs; format: ADME, organism-based; details: in vivo, read-out: Drug uptake
[24] = molecular target: T2, Voltage-gated inwardly rectifying potassium channel KCNH2 (Homo sapiens, UniProt Q12809); assay: Inhibition of human ERG by fluorescence polarization assay
[25] = Cmax in Balb/c mouse assessed as 6-((5-Fluoropyridin-2-yl)amino)-4-((2-(methylsulfonyl)phenyl)amino)nicotinamide level at 10 mg/kg, po after 7 hrs; format: ADME, organism-based; design: dose 10 mg/kg, route oral; details: in vivo
[26] = Drug concentration in Balb/c mouse at 10 mg/kg, po after 1 hr; format: ADME, organism-based; details: in vivo, read-out: Drug uptake
[27] = Permeability across apical to basolateral side in human Caco2 cells; format: ADME, cell-based; details: Caco-2, read-out: permeability
[28] = Cmax in Balb/c mouse assessed as 6-((5-Fluoropyridin-2-yl)amino)-4-((2-(methylsulfonyl)phenyl)amino)nicotinamide level at 10 mg/kg, po after 5 hrs; format: ADME, organism-based; design: dose 10 mg/kg, route oral; details: in vivo
[29] = molecular target: Non-receptor tyrosine-protein kinase TYK2 (Mus musculus, UniProt Q9R117); assay: Inhibition of TYK2 JH2 domain in mouse whole blood assessed as inhibition of IFNalpha-induced STAT1 phosphorylation preincubated for 1 hr followed by IFNalpha stimulation and measured after 15 mins by fluorescence assay; format: tissue-based
[30] = Oral bioavailability in Balb/c mouse at 10 mg/kg; format: ADME, organism-based; details: in vivo
[31] = Drug concentration in Balb/c mouse at 3 mg/kg, iv after 5 hrs; format: ADME, organism-based; details: in vivo, read-out: Drug uptake
[32] = Metabolic stability in rat liver microsomes assessed as parent compound remaining after 10 mins; format: ADME, Microsome; details: read-out: Stability
[33] = AUClast in Balb/c mouse at 10 mg/kg, po; format: ADME, organism-based; design: dose 10 mg/kg, time 0 - last, route oral; details: in vivo
[34] = Drug concentration in Balb/c mouse at 10 mg/kg, po after 0.5 hrs; format: ADME, organism-based; details: in vivo, read-out: Drug uptake
[35] = Partition coefficient, log P of compound by HPLC analysis; format: physicochemical; details: octanol/water
[36] = Cmax in Balb/c mouse assessed as 6-((5-Fluoropyridin-2-yl)amino)-4-((2-(methylsulfonyl)phenyl)amino)nicotinamide level at 3 mg/kg, iv after 3 hrs; format: ADME, organism-based; design: dose 3 mg/kg, route intravenous; details: in vivo
[37] = Metabolic stability in mouse liver microsomes assessed as parent compound remaining after 10 mins; format: ADME, Microsome; details: read-out: Stability
[38] = Cmax in Balb/c mouse assessed as 6-((5-Fluoropyridin-2-yl)amino)-4-((2-(methylsulfonyl)phenyl)amino)nicotinamide level at 3 mg/kg, iv after 0.5 hrs; format: ADME, organism-based; design: dose 3 mg/kg, route intravenous; details: in vivo
[39] = Drug concentration in Balb/c mouse at 3 mg/kg, iv after 0.5 hrs; format: ADME, organism-based; details: in vivo, read-out: Drug uptake
[40] = Cmax in Balb/c mouse assessed as 6-((5-Fluoropyridin-2-yl)amino)-4-((2-(methylsulfonyl)phenyl)amino)nicotinamide level at 10 mg/kg, po after 1 hr; format: ADME, organism-based; design: dose 10 mg/kg, route oral; details: in vivo
JAK2/JAK1 = JAK2/JAK1 (Homo sapiens, UniProt O60674+P23458); assay: Inhibition of JAK1/JAK2 (unknown origin) in GM-CSF stimulated cells by cell based assay
[41] = AUClast in Balb/c mouse assessed as 6-((5-Fluoropyridin-2-yl)amino)-4-((2-(methylsulfonyl)phenyl)amino)nicotinamide level at 10 mg/kg, po; format: ADME, organism-based; design: dose 10 mg/kg, time 0 - last, route oral; details: in vivo
[42] = Drug concentration in Balb/c mouse at 10 mg/kg, po after 5 hrs; format: ADME, organism-based; details: in vivo, read-out: Drug uptake
[43] = Cmax in Balb/c mouse assessed as 6-((5-Fluoropyridin-2-yl)amino)-4-((2-(methylsulfonyl)phenyl)amino)nicotinamide level at 10 mg/kg, po after 3 hrs; format: ADME, organism-based; design: dose 10 mg/kg, route oral; details: in vivo
[44] = Efflux ratio of permeability in human Caco2; format: ADME, cell-based; details: Caco-2
[45] = molecular target: Tyrosine-protein kinase JAK1 (Homo sapiens, UniProt P23458); assay: Inhibition of JAK1 JH1 domain (unknown origin)
[46] = Half life in Balb/c mouse at 3 mg/kg, iv; format: ADME, organism-based; details: in vivo
[47] = molecular target: T2, Voltage-gated inwardly rectifying potassium channel KCNH2; assay: Inhibition of human ERG by patch clamp assay
[48] = Cmax in Balb/c mouse assessed as 6-((5-Fluoropyridin-2-yl)amino)-4-((2-(methylsulfonyl)phenyl)amino)nicotinamide level at 3 mg/kg, iv after 5 hrs; format: ADME, organism-based; design: dose 3 mg/kg, route intravenous; details: in vivo
[49] = Metabolic stability in human liver microsomes assessed as parent compound remaining after 10 mins; format: ADME, Microsome; details: read-out: Stability
[50] = molecular target: T1, Non-receptor tyrosine-protein kinase TYK2; assay: Inhibition of TYK2 JH2 domain in human whole blood assessed as inhibition of IFNalpha-induced STAT5 phosphorylation preincubated for 1 hr followed by IFNalpha stimulation and measured after 15 mins by fluorescence assay; format: tissue-based

T1 sequence (P29597 whole entry, the tested form may be a part): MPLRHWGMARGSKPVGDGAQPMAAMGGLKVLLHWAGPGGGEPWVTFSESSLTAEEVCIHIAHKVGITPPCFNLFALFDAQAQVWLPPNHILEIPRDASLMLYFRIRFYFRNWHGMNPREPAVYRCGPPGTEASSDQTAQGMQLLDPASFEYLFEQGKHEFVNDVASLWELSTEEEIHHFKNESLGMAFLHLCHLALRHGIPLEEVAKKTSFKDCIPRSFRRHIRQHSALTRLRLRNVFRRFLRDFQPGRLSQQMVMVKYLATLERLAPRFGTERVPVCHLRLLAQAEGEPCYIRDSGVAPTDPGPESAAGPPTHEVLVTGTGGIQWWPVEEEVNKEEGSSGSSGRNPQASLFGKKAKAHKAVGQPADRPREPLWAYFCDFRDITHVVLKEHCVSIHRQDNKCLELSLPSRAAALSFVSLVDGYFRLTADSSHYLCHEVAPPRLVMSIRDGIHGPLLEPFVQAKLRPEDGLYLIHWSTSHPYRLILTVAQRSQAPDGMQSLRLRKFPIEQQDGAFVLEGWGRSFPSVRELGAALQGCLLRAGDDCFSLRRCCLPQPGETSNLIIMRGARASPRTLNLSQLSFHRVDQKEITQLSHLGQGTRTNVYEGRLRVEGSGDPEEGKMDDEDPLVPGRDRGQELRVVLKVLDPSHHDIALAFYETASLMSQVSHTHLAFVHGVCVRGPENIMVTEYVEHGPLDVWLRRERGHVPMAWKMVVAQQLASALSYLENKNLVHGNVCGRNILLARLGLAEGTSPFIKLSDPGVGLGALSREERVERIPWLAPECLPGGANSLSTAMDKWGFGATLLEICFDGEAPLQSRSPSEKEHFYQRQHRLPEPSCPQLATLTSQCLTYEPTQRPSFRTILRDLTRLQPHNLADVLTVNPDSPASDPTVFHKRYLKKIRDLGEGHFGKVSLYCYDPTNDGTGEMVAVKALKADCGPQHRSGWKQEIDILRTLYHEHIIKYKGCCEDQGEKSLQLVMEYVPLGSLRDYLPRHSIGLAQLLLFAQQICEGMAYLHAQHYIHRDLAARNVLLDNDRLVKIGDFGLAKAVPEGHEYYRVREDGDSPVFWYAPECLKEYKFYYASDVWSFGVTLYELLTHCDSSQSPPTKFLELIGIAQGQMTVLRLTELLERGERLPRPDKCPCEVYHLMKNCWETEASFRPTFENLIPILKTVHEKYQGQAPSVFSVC
T2 sequence (Q12809 whole entry): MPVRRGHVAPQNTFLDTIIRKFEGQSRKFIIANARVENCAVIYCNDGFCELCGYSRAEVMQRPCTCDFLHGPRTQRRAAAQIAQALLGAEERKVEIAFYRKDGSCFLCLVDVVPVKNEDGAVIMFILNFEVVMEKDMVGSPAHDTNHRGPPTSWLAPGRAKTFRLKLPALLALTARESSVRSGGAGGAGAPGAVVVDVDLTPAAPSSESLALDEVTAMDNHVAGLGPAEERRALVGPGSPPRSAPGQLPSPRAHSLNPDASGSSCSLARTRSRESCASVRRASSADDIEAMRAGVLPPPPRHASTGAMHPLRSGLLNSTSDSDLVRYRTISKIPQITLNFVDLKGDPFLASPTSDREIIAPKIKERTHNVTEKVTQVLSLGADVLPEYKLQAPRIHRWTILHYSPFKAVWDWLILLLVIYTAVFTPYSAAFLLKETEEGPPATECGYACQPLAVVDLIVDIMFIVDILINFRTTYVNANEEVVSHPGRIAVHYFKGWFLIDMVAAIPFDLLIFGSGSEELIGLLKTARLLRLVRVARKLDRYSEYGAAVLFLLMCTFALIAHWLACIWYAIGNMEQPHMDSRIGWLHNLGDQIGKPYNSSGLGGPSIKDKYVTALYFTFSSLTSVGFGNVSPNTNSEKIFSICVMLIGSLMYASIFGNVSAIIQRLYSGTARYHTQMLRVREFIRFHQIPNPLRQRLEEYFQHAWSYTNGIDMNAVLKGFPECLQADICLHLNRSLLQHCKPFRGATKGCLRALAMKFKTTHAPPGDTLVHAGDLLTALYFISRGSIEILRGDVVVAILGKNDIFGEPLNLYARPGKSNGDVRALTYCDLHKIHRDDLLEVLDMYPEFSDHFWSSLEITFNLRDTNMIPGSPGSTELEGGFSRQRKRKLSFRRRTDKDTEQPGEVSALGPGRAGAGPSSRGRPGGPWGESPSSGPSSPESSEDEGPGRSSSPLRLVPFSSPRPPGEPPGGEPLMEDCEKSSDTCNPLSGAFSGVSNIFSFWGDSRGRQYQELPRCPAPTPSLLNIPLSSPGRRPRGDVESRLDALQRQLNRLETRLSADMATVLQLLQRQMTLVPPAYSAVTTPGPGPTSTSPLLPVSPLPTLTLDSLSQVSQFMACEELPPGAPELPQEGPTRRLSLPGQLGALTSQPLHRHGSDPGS
JAK2/TYK2, sequence (O60674 whole entry): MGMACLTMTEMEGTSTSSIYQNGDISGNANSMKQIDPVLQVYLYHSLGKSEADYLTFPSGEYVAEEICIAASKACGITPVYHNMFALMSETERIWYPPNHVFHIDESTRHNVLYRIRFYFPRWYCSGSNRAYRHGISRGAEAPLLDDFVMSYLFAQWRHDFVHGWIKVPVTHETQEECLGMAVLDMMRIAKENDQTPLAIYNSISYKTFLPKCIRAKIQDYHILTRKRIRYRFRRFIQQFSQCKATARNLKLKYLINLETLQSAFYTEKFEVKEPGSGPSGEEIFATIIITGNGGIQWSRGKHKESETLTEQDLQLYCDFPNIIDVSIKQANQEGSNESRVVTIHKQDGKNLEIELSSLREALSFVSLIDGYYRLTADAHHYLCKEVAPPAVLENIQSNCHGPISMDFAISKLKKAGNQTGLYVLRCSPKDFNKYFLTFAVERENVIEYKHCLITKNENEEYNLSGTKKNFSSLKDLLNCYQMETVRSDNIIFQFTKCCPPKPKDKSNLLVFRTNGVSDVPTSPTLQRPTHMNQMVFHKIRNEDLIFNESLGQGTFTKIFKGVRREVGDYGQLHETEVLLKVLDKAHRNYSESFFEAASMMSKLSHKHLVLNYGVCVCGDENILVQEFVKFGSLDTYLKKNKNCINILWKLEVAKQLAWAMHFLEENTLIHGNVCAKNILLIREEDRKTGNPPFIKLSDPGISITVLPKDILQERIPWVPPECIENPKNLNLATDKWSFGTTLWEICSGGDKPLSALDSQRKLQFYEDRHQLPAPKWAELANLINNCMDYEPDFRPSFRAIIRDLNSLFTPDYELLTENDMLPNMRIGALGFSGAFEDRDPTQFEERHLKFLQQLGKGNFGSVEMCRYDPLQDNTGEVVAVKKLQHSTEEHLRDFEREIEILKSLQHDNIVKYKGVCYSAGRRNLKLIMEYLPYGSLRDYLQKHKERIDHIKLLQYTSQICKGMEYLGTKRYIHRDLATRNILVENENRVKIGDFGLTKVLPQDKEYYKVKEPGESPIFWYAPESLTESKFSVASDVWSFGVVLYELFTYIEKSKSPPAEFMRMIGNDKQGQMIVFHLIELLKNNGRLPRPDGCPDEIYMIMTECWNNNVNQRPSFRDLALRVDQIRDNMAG
JAK2/TYK2, sequence (P29597 whole entry): as the sequence (P29597 whole entry, the tested form may be a part) above
Tyrosine-protein kinase JAK2, sequence (O60674 whole entry, the tested form may be a part): as the sequence (O60674 whole entry) above
Non-receptor tyrosine-protein kinase TYK2 (Mus musculus, UniProt Q9R117), sequence (Q9R117 whole entry, the tested form may be a part): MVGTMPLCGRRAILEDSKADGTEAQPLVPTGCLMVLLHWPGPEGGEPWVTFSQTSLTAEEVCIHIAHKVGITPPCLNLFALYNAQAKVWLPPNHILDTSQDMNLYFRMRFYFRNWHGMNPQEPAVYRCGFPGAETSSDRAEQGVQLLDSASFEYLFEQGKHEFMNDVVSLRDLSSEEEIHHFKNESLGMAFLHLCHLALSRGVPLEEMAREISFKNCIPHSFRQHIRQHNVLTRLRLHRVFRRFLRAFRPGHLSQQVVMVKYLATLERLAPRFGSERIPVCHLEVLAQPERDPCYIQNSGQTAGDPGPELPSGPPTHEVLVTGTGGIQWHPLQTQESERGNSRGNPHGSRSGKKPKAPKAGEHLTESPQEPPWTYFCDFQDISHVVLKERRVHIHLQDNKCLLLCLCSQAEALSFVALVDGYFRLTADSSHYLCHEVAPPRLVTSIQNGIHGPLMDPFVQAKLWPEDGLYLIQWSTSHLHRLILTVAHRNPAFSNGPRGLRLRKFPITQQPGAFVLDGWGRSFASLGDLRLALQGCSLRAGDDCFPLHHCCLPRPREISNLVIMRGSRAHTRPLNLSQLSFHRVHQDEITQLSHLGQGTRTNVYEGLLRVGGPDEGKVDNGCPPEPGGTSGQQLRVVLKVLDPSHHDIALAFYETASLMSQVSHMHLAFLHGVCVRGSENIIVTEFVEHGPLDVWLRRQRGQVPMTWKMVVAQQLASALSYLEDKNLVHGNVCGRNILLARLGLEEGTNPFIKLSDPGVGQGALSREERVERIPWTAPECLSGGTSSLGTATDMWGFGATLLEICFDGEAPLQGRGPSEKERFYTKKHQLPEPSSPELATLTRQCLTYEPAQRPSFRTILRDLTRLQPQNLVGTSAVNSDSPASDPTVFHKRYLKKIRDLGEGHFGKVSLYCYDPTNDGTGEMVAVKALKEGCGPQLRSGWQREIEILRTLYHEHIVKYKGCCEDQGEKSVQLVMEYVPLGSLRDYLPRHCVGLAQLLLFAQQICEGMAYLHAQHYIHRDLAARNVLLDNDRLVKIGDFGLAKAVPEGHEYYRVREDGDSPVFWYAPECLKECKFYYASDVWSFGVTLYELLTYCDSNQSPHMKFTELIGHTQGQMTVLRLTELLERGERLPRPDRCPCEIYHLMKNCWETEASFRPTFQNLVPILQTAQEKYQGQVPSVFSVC

SMILES: CNC(=O)c1cnc(Nc2ccc(F)cn2)cc1Nc1ccccc1S(C)(=O)=O
- Cmax [1]: 1620 nM
- Cmax [2]: 9.8 nM
- Cmax [3]: 54 nM
- Vd [4]: 2.8 L/kg
- concentration at 7 h [5]: 190 nM
- AUC(0-t) [6]: 7 µM·h
- IC50 (JAK2/TYK2): 63 nM
- IC50 [7]: 100 nM
- concentration at 3 h [8]: 530 nM
- concentration at 7 h [9]: 450 nM
- concentration at 0.05 h [10]: 3500 nM
- AUClast [11]: 0.36 µM·h
- concentration at 3 h [12]: 1500 nM
- Cmax [13]: 51 nM
- Cmax [14]: 84 nM
- Cmax [15]: 14 nM
- IC50 [16]: > 50000 nM
- IC50 [17]: 0.92 nM
- IC50 [18]: 4200 nM
- IC50 (JAK1/TYK2): 63 nM
- AUC(0-t) [19]: 9.83 µM·h
- IC50 [20]: > 50000 nM
- clearance [21]: 15 mL/min/kg
- concentration at 1 h [22]: 2100 nM
- IC50 (JAK3/JAK1): > 12500 nM
- concentration at 0.05 h [23]: 780 nM
- IC50 [24]: 25000 nM
- Cmax [25]: 24 nM
- concentration at 1 h [26]: 1600 nM
- Papp A→B [27]: 4.8 ×10⁻⁶ cm/s
- Cmax [28]: 47 nM
- IC50 [29]: 450 nM
- bioavailability [30]: 35%
- concentration at 5 h [31]: 440 nM
- remaining at 10 min [32]: 85%
- AUC(0-t) [33]: 8.1 µM·h
- concentration at 0.5 h [34]: 1400 nM
- logP [35]: 2.61
- Cmax [36]: 33 nM
- remaining at 10 min [37]: 87%
- Cmax [38]: 110 nM
- concentration at 0.5 h [39]: 2100 nM
- Cmax [40]: 21 nM
- IC50 (JAK2/JAK1): > 12500 nM
- AUClast [41]: 0.2 µM·h
- concentration at 5 h [42]: 1400 nM
- Cmax [43]: 28 nM
- efflux ratio [44]: 10
- IC50 [45]: > 50000 nM
- half-life [46]: 3 h
- IC50 [47]: 2500 nM
- Cmax [48]: 41 nM
- remaining at 10 min [49]: 90%
- IC50 [50]: 180 nM

— ChEMBL document CHEMBL4414548 (J Med Chem, 2019)
